This is an account of results in ChEMBL document CHEMBL1201862, “PubChem BioAssay data set” (2004).

Active and inactive are the calls of the source. Where only a bound is given, the exact number is not on record here.

Experiment [1] can be described thus: HEp-2 cell cytotoxicity, dose response, cytotoxicity control for RSV inhibitor project, HTS (AID 2410). Format: functional. The following applies: human respiratory syncytial virus.
The target in experiment [2] is Troponin, cardiac muscle (Homo sapiens, UniProt P19429+P45379+P63316). Put plainly: Fluorescence-based biochemical high throughput dose response assay for activators of the calcium sensitivity of cardiac Regulated Thin Filaments (RTF). [Related pubchem assays (depositor defined):AID493008, AID493018, AID504382, AID504383]. Format: protein-complex assay.
The target in experiment [3] is T1, Endoribonuclease toxin MazF (Escherichia coli K-12, UniProt P0AE70).
T1 sequence (P0AE70 whole entry): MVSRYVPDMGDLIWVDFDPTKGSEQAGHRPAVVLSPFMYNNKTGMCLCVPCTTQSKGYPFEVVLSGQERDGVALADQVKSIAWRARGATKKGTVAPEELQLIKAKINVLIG
Put plainly: MazF toxin RNase activators, dose response, biochemical, fluorescence, single-stranded RNA substrate, uHTS hits (AID 588481). Format: functional.

For experiment [4], the target named is T1, Endoribonuclease toxin MazF. Put plainly: fluorescent RNA oligo signal without MazF, dose response, counter-screen for MazEF activator project, biochemical, fluorescence, single-stranded RNase substrate (AID 588502). Format: functional. Background: Counterscreens check selectivity or assay interference.
Experiment [5] deals with Alkaline phosphatase, placental type (Homo sapiens, UniProt P05187). Put plainly: PLAP enzyme inhibitors, confirmation, biochemical, luminescence (AID 1512). Format: functional.
Alkaline phosphatase, placental type, sequence (P05187 whole entry): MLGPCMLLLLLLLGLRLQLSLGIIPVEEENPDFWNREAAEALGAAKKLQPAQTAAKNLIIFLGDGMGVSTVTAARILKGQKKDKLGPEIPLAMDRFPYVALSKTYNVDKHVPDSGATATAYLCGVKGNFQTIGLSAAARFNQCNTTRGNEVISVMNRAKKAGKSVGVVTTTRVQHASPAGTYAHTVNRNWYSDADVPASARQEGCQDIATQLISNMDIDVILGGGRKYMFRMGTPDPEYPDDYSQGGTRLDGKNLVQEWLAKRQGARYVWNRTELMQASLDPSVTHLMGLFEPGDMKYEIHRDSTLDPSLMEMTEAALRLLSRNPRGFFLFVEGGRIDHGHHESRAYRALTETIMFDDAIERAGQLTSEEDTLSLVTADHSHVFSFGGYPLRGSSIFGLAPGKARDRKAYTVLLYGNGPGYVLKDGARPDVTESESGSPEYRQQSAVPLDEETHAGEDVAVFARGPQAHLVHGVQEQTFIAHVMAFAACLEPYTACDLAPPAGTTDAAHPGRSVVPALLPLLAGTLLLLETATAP
For experiment [6], the target named is Mu-type opioid receptor (Homo sapiens, UniProt P35372). Put plainly: SAR Analysis of Antagonists of the MOR Receptor using an Image-Based Assay - Set 3. [Related pubchem assays (depositor defined):AID1777, AID1785, AID1786, AID1966, AID2133, AID2136, AID2284, AID2285, AID2420]. Format: functional.
Mu-type opioid receptor, sequence (P35372 whole entry): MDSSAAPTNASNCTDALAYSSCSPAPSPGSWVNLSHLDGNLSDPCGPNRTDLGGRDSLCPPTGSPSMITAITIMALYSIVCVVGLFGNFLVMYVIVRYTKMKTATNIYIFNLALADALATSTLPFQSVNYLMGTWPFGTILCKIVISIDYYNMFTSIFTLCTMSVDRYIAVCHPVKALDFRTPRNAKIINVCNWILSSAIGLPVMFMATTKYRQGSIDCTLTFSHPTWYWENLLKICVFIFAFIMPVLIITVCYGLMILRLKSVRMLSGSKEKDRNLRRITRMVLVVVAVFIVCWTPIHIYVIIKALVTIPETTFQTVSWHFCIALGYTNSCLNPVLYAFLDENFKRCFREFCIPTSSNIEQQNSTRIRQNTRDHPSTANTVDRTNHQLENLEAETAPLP
The target of experiment [7] is Delta-type opioid receptor (Homo sapiens, UniProt P41143). Put plainly: SAR Analysis of Antagonists of the DOR Receptor using an Image-Based Assay - Set 3. [Related pubchem assays (depositor defined):AID1777, AID1785]. Format: functional.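 Note: U2OS cells expressing DOR1 and beta-arrestin GFP stimulated with 100 nM SNC80; imaging of GFP-tagged beta-arrestin moving into spots after receptor activation.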
Delta-type opioid receptor, sequence (P41143 whole entry): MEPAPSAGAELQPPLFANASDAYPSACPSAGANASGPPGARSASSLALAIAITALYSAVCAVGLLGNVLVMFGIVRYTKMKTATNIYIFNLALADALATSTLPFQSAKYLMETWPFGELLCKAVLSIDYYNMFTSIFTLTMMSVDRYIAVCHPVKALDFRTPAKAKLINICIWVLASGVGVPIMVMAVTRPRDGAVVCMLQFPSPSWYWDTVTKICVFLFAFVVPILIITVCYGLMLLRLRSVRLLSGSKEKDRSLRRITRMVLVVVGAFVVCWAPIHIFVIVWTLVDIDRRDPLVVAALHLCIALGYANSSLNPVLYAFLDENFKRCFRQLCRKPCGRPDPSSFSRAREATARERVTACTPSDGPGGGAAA
Experiment [8] concerns the target T2, Kappa-type opioid receptor (Homo sapiens, UniProt P41145). Put plainly: SAR analysis of small molecule antagonists of the kappa opioid receptor via a luminescent beta-arrestin assay - Set 3. [Related pubchem assays (depositor defined):AID1777, AID1778, AID1785, AID1786, AID1966, AID2133, AID2136, AID2285, AID2495]. Format: functional.
The target of experiment [9] is T2, Kappa-type opioid receptor. Put plainly: SAR analysis of Antagonists of the Kappa Opioid Receptor (KOR) using an Image-Based Assay - Set 3. [Related pubchem assays (depositor defined):AID1777, AID1785]. Format: functional.
Experiment [10] deals with Lysine-specific demethylase 4C (Homo sapiens, UniProt Q9H3R0). Put plainly: GASC-1 (JMJD2C) histone demethylase inhibitors, dose response, biochemical, DELFIA europium, cherry-picked samples (AID 488835). Format: functional.
For experiment [11], the target named is Beta-2 adrenergic receptor (Homo sapiens, UniProt P07550). Put plainly: beta2AR agonists driving receptor internalization, dose response, cell-based, FAP fluorogen, flow cytometry, cherry pick 1 (AID 588763). Format: functional. (In flow cytometry, cells or beads pass a laser one at a time.)
Beta-2 adrenergic receptor, sequence (P07550 whole entry): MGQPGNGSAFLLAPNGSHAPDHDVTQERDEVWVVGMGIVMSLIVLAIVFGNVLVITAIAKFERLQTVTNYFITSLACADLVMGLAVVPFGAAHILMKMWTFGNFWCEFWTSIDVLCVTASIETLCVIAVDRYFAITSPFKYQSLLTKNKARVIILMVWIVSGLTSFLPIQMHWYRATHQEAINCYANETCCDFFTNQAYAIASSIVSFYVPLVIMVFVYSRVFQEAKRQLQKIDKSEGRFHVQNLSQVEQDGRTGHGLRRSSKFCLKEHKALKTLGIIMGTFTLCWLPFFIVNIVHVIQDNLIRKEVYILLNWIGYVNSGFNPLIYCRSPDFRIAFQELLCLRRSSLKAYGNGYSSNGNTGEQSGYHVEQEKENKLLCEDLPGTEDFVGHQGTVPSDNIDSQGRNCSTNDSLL
Experiment [12] deals with Peroxisome proliferator-activated receptor gamma/Nuclear receptor coactivator 1 (Homo sapiens, UniProt P37231). Put plainly: TR-FRET dose response biochemical High Throughput Screening assay for agonists of the steroid receptor coactivator 1 (SRC-1) recruitment by the peroxisome proliferator-activated receptor gamma (PPAR gamma): non-selective agonists. [Related pubchem assays (depositor defined):AID1300, AID1808, AID504735, AID631]. Format: protein assay. (In general: TR-FRET usually uses a lanthanide donor and a delayed reading to cut background.)

Experiment [13] concerns the target Peroxisome proliferator-activated receptor gamma/Nuclear receptor coactivator 3 (Homo sapiens, UniProt P37231). Put plainly: TR-FRET dose response biochemical High Throughput Screening assay for agonists of the steroid receptor coactivator 3 (SRC-3) recruitment by the peroxisome proliferator-activated receptor gamma (PPAR gamma): non-selective agonists. [Related pubchem assays: 1301 (Confirmation screen.), 1048 (Primary screen.)]. Format: functional.

Experiment [14] deals with Peroxisome proliferator-activated receptor gamma/Nuclear receptor coactivator 2 (Homo sapiens, UniProt P37231). Put plainly: TR-FRET dose response biochemical High Throughput Screening assay for agonists of the steroid receptor coactivator 2 (SRC-2) recruitment by the peroxisome proliferator-activated receptor gamma (PPAR gamma): non-selective agonists. [Related pubchem assays: 1297, 1032 ]. Format: functional.

Broadly, the CC50 is the concentration that lowers cell viability or growth by half. One may read the EC50 as the midpoint of the concentration-response curve. The term IC50 denotes the point on the concentration scale where inhibition reaches its midpoint. Broadly, the AC50 is the midpoint of the concentration-response curve, whichever way the signal moves.

T2 sequence (P41145 whole entry): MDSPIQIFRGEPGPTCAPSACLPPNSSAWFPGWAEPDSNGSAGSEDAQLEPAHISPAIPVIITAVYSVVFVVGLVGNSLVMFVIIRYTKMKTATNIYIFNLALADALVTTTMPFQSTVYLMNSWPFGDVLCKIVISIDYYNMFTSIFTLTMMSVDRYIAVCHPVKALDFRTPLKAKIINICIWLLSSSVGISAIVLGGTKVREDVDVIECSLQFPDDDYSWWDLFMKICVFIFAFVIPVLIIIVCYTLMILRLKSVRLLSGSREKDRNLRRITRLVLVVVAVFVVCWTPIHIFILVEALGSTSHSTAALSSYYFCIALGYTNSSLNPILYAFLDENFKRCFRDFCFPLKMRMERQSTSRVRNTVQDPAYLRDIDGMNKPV
Peroxisome proliferator-activated receptor gamma/Nuclear receptor coactivator 3, sequence (P37231 whole entry): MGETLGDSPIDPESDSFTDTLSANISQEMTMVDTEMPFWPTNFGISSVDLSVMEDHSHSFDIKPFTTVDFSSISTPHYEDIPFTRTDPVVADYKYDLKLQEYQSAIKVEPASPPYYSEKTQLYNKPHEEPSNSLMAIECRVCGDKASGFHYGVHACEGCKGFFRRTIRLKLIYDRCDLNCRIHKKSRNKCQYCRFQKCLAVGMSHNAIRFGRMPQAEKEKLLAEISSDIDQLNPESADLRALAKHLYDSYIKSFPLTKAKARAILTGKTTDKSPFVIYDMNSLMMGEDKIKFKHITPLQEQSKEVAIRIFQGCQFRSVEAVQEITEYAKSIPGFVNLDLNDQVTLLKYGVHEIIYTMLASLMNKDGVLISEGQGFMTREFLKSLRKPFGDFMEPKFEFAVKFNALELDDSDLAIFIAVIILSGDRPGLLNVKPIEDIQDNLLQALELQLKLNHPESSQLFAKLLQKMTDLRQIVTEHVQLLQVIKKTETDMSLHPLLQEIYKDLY
Peroxisome proliferator-activated receptor gamma/Nuclear receptor coactivator 3, sequence (Q9Y6Q9 whole entry, further chain): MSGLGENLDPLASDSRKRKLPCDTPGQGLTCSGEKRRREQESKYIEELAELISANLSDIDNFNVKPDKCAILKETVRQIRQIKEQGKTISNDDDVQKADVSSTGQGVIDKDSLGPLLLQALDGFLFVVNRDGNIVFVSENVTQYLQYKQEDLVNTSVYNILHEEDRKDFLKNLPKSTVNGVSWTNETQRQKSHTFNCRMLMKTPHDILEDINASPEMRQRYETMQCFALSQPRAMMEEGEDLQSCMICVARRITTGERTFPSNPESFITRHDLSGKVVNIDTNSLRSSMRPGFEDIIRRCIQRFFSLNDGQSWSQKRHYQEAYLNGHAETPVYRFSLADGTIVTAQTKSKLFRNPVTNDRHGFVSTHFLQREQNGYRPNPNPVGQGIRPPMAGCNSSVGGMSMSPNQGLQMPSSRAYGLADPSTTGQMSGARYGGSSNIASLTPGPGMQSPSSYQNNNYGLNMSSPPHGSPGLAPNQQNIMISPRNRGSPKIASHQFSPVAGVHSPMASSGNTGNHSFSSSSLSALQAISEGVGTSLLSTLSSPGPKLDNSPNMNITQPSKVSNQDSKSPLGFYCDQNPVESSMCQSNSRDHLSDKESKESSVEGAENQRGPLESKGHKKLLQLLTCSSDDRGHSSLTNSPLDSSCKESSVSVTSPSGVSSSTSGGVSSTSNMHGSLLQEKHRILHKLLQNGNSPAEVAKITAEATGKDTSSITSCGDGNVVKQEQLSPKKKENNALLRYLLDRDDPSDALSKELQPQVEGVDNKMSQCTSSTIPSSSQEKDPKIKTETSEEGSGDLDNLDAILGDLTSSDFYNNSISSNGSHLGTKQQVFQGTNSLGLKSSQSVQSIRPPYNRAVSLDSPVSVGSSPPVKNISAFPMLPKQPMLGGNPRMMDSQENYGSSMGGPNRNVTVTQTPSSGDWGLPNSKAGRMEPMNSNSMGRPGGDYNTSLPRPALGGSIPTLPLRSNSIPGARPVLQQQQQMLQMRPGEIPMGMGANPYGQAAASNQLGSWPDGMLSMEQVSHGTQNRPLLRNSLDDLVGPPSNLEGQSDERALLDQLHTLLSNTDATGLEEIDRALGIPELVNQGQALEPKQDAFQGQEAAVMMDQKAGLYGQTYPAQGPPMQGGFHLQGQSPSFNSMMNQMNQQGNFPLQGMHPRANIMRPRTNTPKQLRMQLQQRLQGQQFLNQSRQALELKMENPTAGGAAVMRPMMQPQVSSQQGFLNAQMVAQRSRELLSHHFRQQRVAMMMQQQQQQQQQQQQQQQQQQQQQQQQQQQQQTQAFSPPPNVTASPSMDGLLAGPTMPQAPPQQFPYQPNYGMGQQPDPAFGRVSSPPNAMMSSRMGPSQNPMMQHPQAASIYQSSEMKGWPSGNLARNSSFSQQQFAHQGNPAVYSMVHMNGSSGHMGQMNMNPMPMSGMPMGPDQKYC

As for `O=[N+]([O-])c1ccc(N2CCCC2)c2ncccc12`, in experiment [1], the CC50 was > 50 µM (active). The EC50 in experiment [2] is 12.1 µM (inactive); in experiment [3] it was > 99 µM (inactive); in experiment [4], > 99 µM (inactive).
For the compound `CC(=O)NNc1ncnc2c1cnn2-c1ccc(C)cc1`, the IC50 in experiment [5] was > 100 µM (inactive).
On to `Cc1cccc(S(=O)(=O)NCc2ccc(C(=O)NCCN(Cc3ccccc3)C(C)C)cc2)c1`, for which the IC50 in experiment [6] is 7.99 µM (active); in experiment [7] it was > 32 µM (inactive); in experiment [8], 2.32 µM (active); in experiment [9], 0.872 µM (active).
Take `CN(C)c1ccc(C(=O)OCC(=O)N2CCCC2)cc1`: the concentration at half-maximal activity (AC50) in experiment [10] was 10.6 µM (active).
Turning to `CCOc1ccccc1C(=O)NCC(=O)OCc1csc(CC(=O)Nc2ccc(C)cc2)n1`, in experiment [11], the EC50 was 0.228 µM (active).
In the case of `CCn1c(=S)[nH]c2c(c1=O)C(C)(C)Cc1ccccc1-2`, the EC50 was > 79.4 µM (inactive) in experiment [12], > 79.4 µM (not active) in experiment [13] and > 79.4 µM (not active) in experiment [14].
